Reference: patent US12077503B2, “Substituted cyclic amides and their use as herbicides” (FMC CORPORATION, priority 2015, dated 2024)

Tests used:
Assay type in all cases: in vivo
[1] = test system: giant foxtail (Setaria faberii); assay: Test A postemergence
Text: (§1) Seeds of plant species selected from barnyardgrass (Echinochloa crus-galli), Kochia (Kochia scoparia), ragweed (common ragweed, Ambrosia elatior), ryegrass, Italian (Italian ryegrass, Lolium multiflorum), crabgrass, large (Digitaria sanguinalis), giant foxtail (Setaria faberii), green foxtail (Setaria viridis), morningglory (Ipomoea spp.), pigweed (Amaranthus retroflexus), velvetleaf (Abutilon theophrasti), wheat (Triticum aestivum), and corn (Zea mays) were planted into a blend of loam soil and sand and treated preemergence with a directed soil spray using test chemicals formulated in anon-phytotoxic solvent mixture which included a surfactant.
(§2) At the same time, plants selected from these crop and weed species and also blackgrass (Alopecurus myosuroides), and Galium (catchweed bedstraw, Galium aparine) were planted in pots containing the same blend of loam soil and sand and treated with postemergence applications of test chemicals formulated in the same manner. Plants ranged in height from 2 to 10 cm and were in the one- to two-leaf stage for the postemergence treatment. Treated plants and untreated controls were maintained in a greenhouse for approximately 10 d, after which time all treated plants were compared to untreated controls and visually evaluated for injury. Plant response ratings, summarized in Table A, are based on a 0 to 100 scale where 0 is no effect and 100 is complete control. A dash (-) response means no test result.

[2] = test system: Galium (catchweed bedstraw, Galium aparine); assay: Test A postemergence
Text: as §1, §2

Kochia (Kochia scoparia) [3] = assay: Test A postemergence
Text: as §1, §2

[4] = test system: pigweed (Amaranthus retroflexus); assay: Test A postemergence
Text: as §1, §2

[5] = test system: blackgrass (Alopecurus myosuroides); assay: Test A postemergence
Text: as §1, §2

[6] = test system: wheat (Triticum aestivum); assay: Test A postemergence
Text: as §1, §2

corn (Zea mays) = assay: Test A postemergence
Text: as §1, §2

[7] = test system: ryegrass, Italian (Italian ryegrass, Lolium multiflorum); assay: Test A postemergence
Text: as §1, §2

[8] = test system: ragweed (common ragweed, Ambrosia elatior); assay: Test A postemergence
Text: as §1, §2

[9] = test system: barnyardgrass (Echinochloa crus-galli); assay: Test A postemergence
Text: as §1, §2

[10] = test system: giant foxtail (Setaria faberii); assay: Test A preemergence; conditions: Preemergence; for Plant response rating, Foxtail, Giant: 125 g ai/ha, visual injury after approximately 10 d, 0 to 100 scale where 0 is no effect and 100 is complete control; for Foxtail, Giant plant response rating (0 to 100 scale, 0 is no effect, 100 is complete control): 500 g ai/ha, visual injury approx. 10 d
Text: as §1, §2

Kochia (Kochia scoparia) [11] = assay: Test A preemergence; conditions: Preemergence; for Plant response rating, Kochia: 125 g ai/ha, visual injury after approximately 10 d, 0 to 100 scale where 0 is no effect and 100 is complete control; for Kochia plant response rating (0 to 100 scale, 0 is no effect, 100 is complete control): 500 g ai/ha, visual injury approx. 10 d
Text: as §1, §2

[12] = test system: pigweed (Amaranthus retroflexus); assay: Test A preemergence; conditions: Preemergence; for Plant response rating, Pigweed: 125 g ai/ha, visual injury after approximately 10 d, 0 to 100 scale where 0 is no effect and 100 is complete control; for Pigweed plant response rating (0 to 100 scale, 0 is no effect, 100 is complete control): 500 g ai/ha, visual injury approx. 10 d
Text: as §1, §2

[13] = test system: ryegrass, Italian (Italian ryegrass, Lolium multiflorum); assay: Test A preemergence; conditions: Preemergence; for Plant response rating, Ryegrass, Italian: 125 g ai/ha, visual injury after approximately 10 d, 0 to 100 scale where 0 is no effect and 100 is complete control; for Ryegrass, Italian plant response rating (0 to 100 scale, 0 is no effect, 100 is complete control): 500 g ai/ha, visual injury approx. 10 d
Text: as §1, §2

[14] = test system: ragweed (common ragweed, Ambrosia elatior); assay: Test A preemergence; conditions: Preemergence; for Plant response rating, Ragweed: 125 g ai/ha, visual injury after approximately 10 d, 0 to 100 scale where 0 is no effect and 100 is complete control; for Ragweed plant response rating (0 to 100 scale, 0 is no effect, 100 is complete control): 500 g ai/ha, visual injury approx. 10 d
Text: as §1, §2

[15] = test system: barnyardgrass (Echinochloa crus-galli); assay: Test A preemergence; conditions: Preemergence; for Plant response rating, Barnyardgrass: 125 g ai/ha, visual injury after approximately 10 d, 0 to 100 scale where 0 is no effect and 100 is complete control; for Barnyardgrass plant response rating (0 to 100 scale, 0 is no effect, 100 is complete control): 500 g ai/ha, visual injury approx. 10 d
Text: as §1, §2

[16] = 125 g ai/ha, postemergence, visual rating after approx. 10 d, 0 to 100 scale (0 no effect, 100 complete control)
[17] = Postemergence, 500 g ai/ha, 0 to 100 scale where 0 is no effect and 100 is complete control

Row | SMILES | Plant response rating, Foxtail, Giant [1, 16] | Plant response rating, Foxtail, Giant [1, 17] | Plant response rating, Galium [2, 16] | Plant response rating, Galium [2, 17] | Plant response rating, Kochia (Kochia (Kochia scoparia) [3]; [16]) | Plant response rating, Kochia (Kochia (Kochia scoparia) [3]; [17]) | Plant response rating, Pigweed [4, 16] | Plant response rating, Pigweed [4, 17] | Plant response rating, Blackgrass [5, 16] | Plant response rating, Blackgrass [5, 17] | Plant response rating, Wheat [6, 16] | Plant response rating, Wheat [6, 17] | Plant response rating, Corn (corn (Zea mays); [16]) | Plant response rating, Corn (corn (Zea mays); [17]) | Plant response rating, Ryegrass, Italian [7, 16] | Plant response rating, Ryegrass, Italian [7, 17] | Plant response rating, Ragweed [8, 16] | Plant response rating, Ragweed [8, 17] | Plant response rating, Barnyardgrass [9, 16] | Plant response rating, Barnyardgrass [9, 17] | other results
1 | Cc1ccc(C2CN(C)C(=O)C2C(=O)Nc2ccccc2F)c(F)c1 (stereo not shown) [Compound 560] | 90 | 90 | 40 | 60 | 40 | 80 | 0 | 20 | 30 | 50 | 0 | 50 | 0 | 30 | 0 | 60 | 0 | 20 | 90 | 100 | Plant response rating, Foxtail, Giant [10]: 100; Foxtail, Giant plant response rating (0 to 100 scale, 0 is no effect, 100 is complete control) [10]: 100; Plant response rating, Kochia (Kochia (Kochia scoparia) [11]): 60; Kochia plant response rating (0 to 100 scale, 0 is no effect, 100 is complete control) (Kochia (Kochia scoparia) [11]): 80; Plant response rating, Pigweed [12]: 0; Pigweed plant response rating (0 to 100 scale, 0 is no effect, 100 is complete control) [12]: 40; Plant response rating, Ryegrass, Italian [13]: 0; Ryegrass, Italian plant response rating (0 to 100 scale, 0 is no effect, 100 is complete control) [13]: 70; Plant response rating, Ragweed [14]: 0; Ragweed plant response rating (0 to 100 scale, 0 is no effect, 100 is complete control) [14]: 0; Plant response rating, Barnyardgrass [15]: 90; Barnyardgrass plant response rating (0 to 100 scale, 0 is no effect, 100 is complete control) [15]: 100
2 | O=C1NCC(c2ccc(OC(F)F)cc2)C1C(=O)Nc1cccc(F)c1F (stereo not shown) [Compound 561] | 90 | 90 | 60 | 60 | 70 | 80 | 60 | 70 | 50 | 70 | 30 | 70 | 10 | 60 | 20 | 60 | 20 | 40 | 90 | 90 | Plant response rating, Foxtail, Giant [10]: 90; Foxtail, Giant plant response rating (0 to 100 scale, 0 is no effect, 100 is complete control) [10]: 90; Plant response rating, Kochia (Kochia (Kochia scoparia) [11]): 70; Kochia plant response rating (0 to 100 scale, 0 is no effect, 100 is complete control) (Kochia (Kochia scoparia) [11]): 90; Plant response rating, Pigweed [12]: 80; Pigweed plant response rating (0 to 100 scale, 0 is no effect, 100 is complete control) [12]: 90; Plant response rating, Ryegrass, Italian [13]: 0; Ryegrass, Italian plant response rating (0 to 100 scale, 0 is no effect, 100 is complete control) [13]: 40; Plant response rating, Ragweed [14]: 80; Ragweed plant response rating (0 to 100 scale, 0 is no effect, 100 is complete control) [14]: 80; Plant response rating, Barnyardgrass [15]: 90; Barnyardgrass plant response rating (0 to 100 scale, 0 is no effect, 100 is complete control) [15]: 90
3 | CN1CC(c2ccc(OC(F)F)cc2)C(C(=O)Nc2cccc(F)c2F)C1=O (stereo not shown) [Compound 562] | 90 | 90 | 60 | 70 | 70 | 80 | 70 | 80 | 60 | 70 | 50 | 80 | 40 | 80 | 70 | 80 | 50 | 60 | 90 | 90 | Plant response rating, Foxtail, Giant [10]: 90; Foxtail, Giant plant response rating (0 to 100 scale, 0 is no effect, 100 is complete control) [10]: 90; Plant response rating, Kochia (Kochia (Kochia scoparia) [11]): 70; Kochia plant response rating (0 to 100 scale, 0 is no effect, 100 is complete control) (Kochia (Kochia scoparia) [11]): 90; Plant response rating, Pigweed [12]: 90; Pigweed plant response rating (0 to 100 scale, 0 is no effect, 100 is complete control) [12]: 90; Plant response rating, Ryegrass, Italian [13]: 60; Ryegrass, Italian plant response rating (0 to 100 scale, 0 is no effect, 100 is complete control) [13]: 90; Plant response rating, Ragweed [14]: 70; Ragweed plant response rating (0 to 100 scale, 0 is no effect, 100 is complete control) [14]: 80; Plant response rating, Barnyardgrass [15]: 90; Barnyardgrass plant response rating (0 to 100 scale, 0 is no effect, 100 is complete control) [15]: 90
4 | CN1CC(c2ccc(Br)cc2)C(C(=O)Nc2ccccc2F)C1=O (stereo not shown) [Compound 563] | 90 | 90 | 70 | 70 | 70 | 80 | 0 | 40 | 40 | 50 | 20 | 40 | 20 | 50 | 40 | 40 | 0 | 50 | 90 | 90 | Plant response rating, Foxtail, Giant [10]: 90; Foxtail, Giant plant response rating (0 to 100 scale, 0 is no effect, 100 is complete control) [10]: 100; Plant response rating, Kochia (Kochia (Kochia scoparia) [11]): 70; Kochia plant response rating (0 to 100 scale, 0 is no effect, 100 is complete control) (Kochia (Kochia scoparia) [11]): 80; Plant response rating, Pigweed [12]: 70; Pigweed plant response rating (0 to 100 scale, 0 is no effect, 100 is complete control) [12]: 80; Plant response rating, Ryegrass, Italian [13]: 0; Ryegrass, Italian plant response rating (0 to 100 scale, 0 is no effect, 100 is complete control) [13]: 0; Plant response rating, Ragweed [14]: 50; Ragweed plant response rating (0 to 100 scale, 0 is no effect, 100 is complete control) [14]: 60; Plant response rating, Barnyardgrass [15]: 90; Barnyardgrass plant response rating (0 to 100 scale, 0 is no effect, 100 is complete control) [15]: 100
5 | CN1CC(c2ccc(Br)cc2)C(C(=O)Nc2cccc(F)c2F)C1=O (stereo not shown) [Compound 564] | 90 | 90 | 70 | 70 | 80 | 80 | 40 | 70 | 40 | 70 | 40 | 60 | 70 | 80 | 60 | 70 | 50 | 60 | 90 | 90 | Plant response rating, Foxtail, Giant [10]: 90; Foxtail, Giant plant response rating (0 to 100 scale, 0 is no effect, 100 is complete control) [10]: 100; Plant response rating, Kochia (Kochia (Kochia scoparia) [11]): 80; Kochia plant response rating (0 to 100 scale, 0 is no effect, 100 is complete control) (Kochia (Kochia scoparia) [11]): 90; Plant response rating, Pigweed [12]: 90; Pigweed plant response rating (0 to 100 scale, 0 is no effect, 100 is complete control) [12]: 90; Plant response rating, Ryegrass, Italian [13]: 40; Ryegrass, Italian plant response rating (0 to 100 scale, 0 is no effect, 100 is complete control) [13]: 90; Plant response rating, Ragweed [14]: 80; Ragweed plant response rating (0 to 100 scale, 0 is no effect, 100 is complete control) [14]: 90; Plant response rating, Barnyardgrass [15]: 90; Barnyardgrass plant response rating (0 to 100 scale, 0 is no effect, 100 is complete control) [15]: 100
